Measurements: patent publication US20240350542A1, “ANTICANCER T CELL THERAPY PRODUCT-ASSISTING COMPOSITION COMPRISING DEPLETING ANTI-CD4 MONOCLONAL ANTIBODY AND USE THEREOF” (NATIONAL CANCER CENTER, priority 2018, published 2024)
Like-named read-outs stand apart in the source and are kept apart here.

Columns and labels:
[1] = test system: B16-F10 melanoma cancer cells
Description: (§1) Specifically, 2×10^5 B16-F10 melanoma cancer cells were subcutaneously injected into the dorsal area of a C57BL/6 mouse to induce the formation of cancer tissue. At the same time, aPmel-1 was prepared in the same manner as in Example 1. aPmel-1 and IL-2 were administered in the same manner as in Example 1, and transient immunodeficiency was induced by intraperitoneally injecting 150, 200 and 300 mg/kg of cyclophosphamide (CTX) two days before the aPmel-1 administration. In addition, to confirm a period of maintaining transient immunodeficiency according to the dose of CTX, 150, 200 and 300 mg/kg of CTX was intraperitoneally injected into C57BL/6 mice once, and an inguinal lymph node and the spleen of the mice were collected, followed by single cell suspension and then counting a cell number.

[2] = test system: inguinal lymph node and spleen cell number
Description: as §1

For `O=P1(N(CCCl)CCCl)NCCCO1` (stereo not drawn) [CTX, cyclophosphamide], the “toxicity to the mouse” value ([1]; 300 mg/kg or more of CTX) was “can be toxic to the mouse, leading to the death of the mouse”, the survival of mouse ([1]; C57BL/6, 150 mg/kg CTX only) was “up to 35 days” and the “growth of cancer tissue” value ([1]; C57BL/6, 150 mg/kg CTX only, vs NT) was “cancer tissue grew more slowly”. For the same compound, the “growth of cancer tissue” value ([1]; C57BL/6, 200 mg/kg CTX only) was “slower growth of cancer tissue than the 150 mg/kg CTX-administered mouse”, the survival of mouse ([1]; C57BL/6, 200 mg/kg CTX only) was “up to 45 days” and the “growth of cancer tissue” value ([1]; C57BL/6, 300 mg/kg CTX only) was “slower growth of cancer tissue than when 200 mg/kg CTX-administered mouse”. The survival of mouse ([1]; C57BL/6, 300 mg/kg CTX only) was “up to 60 days”, the transient immunodeficiency effect ([2]; C57BL/6, 150 mg/kg CTX) was “insignificant” and the “period the immunodeficiency effect was maintained” value ([2]; C57BL/6, 200 mg/kg CTX intraperitoneally once) was “approximately 2 weeks”.
